Experimental data: ChEMBL document CHEMBL4354783, “The calcium-dependent lipopeptide antibiotics: structure, mechanism, & medicinal chemistry” (2019)
Converted amounts (≈) assume the structure as drawn.

What was measured:
Staphylococcus aureus = experiment: Antibacterial activity against methicillin-resistant Staphylococcus aureus USA300 incubated for 18 hrs by two-fold serial dilutions method; type: functional; conditions: USA300, 18 h
Enterococcus faecium = experiment: Antibacterial activity against vancomycin-resistant Enterococcus faecium incubated for 18 hrs by two-fold serial dilutions method; type: functional

Row | SMILES | MIC (Staphylococcus aureus) | MIC (Enterococcus faecium)
1 | CCC(C)CC/C=C\C=C\C(=O)N[C@H](C(=O)N[C@@H]1C(=O)N[C@H](C(C)C)C(=O)N[C@@H](CCCCN)C(=O)N[C@@H](C(O)C(=O)O)C(=O)N[C@@H](CC(=O)O)C(=O)NCC(=O)N[C@H](C(C)C(=O)O)C(=O)N[C@@H](C(C)C)C(=O)N2C[C@H](C)C[C@H]2C(=O)NC1C)C(C)C(=O)O (some centres undefined) | 0.2 to 0.8 µg/mL (≈ 0.158 to 0.633 µM) | 0.8 to 2 µg/mL (≈ 0.633 to 1.58 µM)
2 | CC(C)CC/C=C\C=C\C(=O)N[C@H](C(=O)N[C@@H]1C(=O)N[C@H](C(C)C)C(=O)N[C@@H](CCCCN)C(=O)N[C@@H](C(O)C(=O)O)C(=O)N[C@@H](CC(=O)O)C(=O)NCC(=O)N[C@H](C(C)C(=O)O)C(=O)N[C@@H](C(C)C)C(=O)N2C[C@H](C)C[C@H]2C(=O)NC1C)C(C)C(=O)O (some centres undefined) | 0.2 to 0.8 µg/mL (≈ 0.16 to 0.64 µM) | 0.8 to 2 µg/mL (≈ 0.64 to 1.6 µM)
